Data reported in patent publication US11279735B2, “Cyclic peptide antibiotics” (priority 2017, dated 2022).
Values after ≈ are worked out from the molar mass of the structure shown. *1 amine or outer side, *2 acyl side, *3 side chain or, on linkers, in order; H or OH if unused. Where a SMILES comes first, the peptide text is derived from it. [ ]: non-standard residue; d: D form. The star is where a group is joined. X6 = CCCCCC[C@@H](OC[C@@H](CC)N[*:1])[C@@H](C)C(=O)[*:2]; X2 = CCCCCC[C@@H](OC[C@@H](C)N[*:1])[C@@H](C)C(=O)[*:2]; X9 = CCCCCC(C)[C@@H](OC[C@@H](C)N[*:1])C(C)C(=O)[*:2]; aThr = C[C@H](O)[C@H](N)C(=O)O; NMeL = CN[C@@H](CC(C)C)C(=O)O; Chg = N[C@H](C(=O)O)C1CCCCC1; Propyl(3-NMe2) = CN(C)CCC*; Dap = NC[C@H](N)C(=O)O; Propyl(3-NH2) = NCCC*

tested on: Escherichia coli (E. coli) strain CFT073 ATCC 700928; assay type: cell-based; conditions: ATCC 700928, 22 h
How it was run: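 MICs were read after 22 h at 35 °C, with bacteria added to a final OD600 of 0.0005. Compounds were serially diluted 2-fold over ten concentrations from a top of 64, 4, 0.5 or 0.13 μg/mL (protocols 1–4). Medium was cation-adjusted Mueller Hinton II broth plus 0.002% Tween-80, following CLSI M07-A8.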

Row | MIC | Compound
1 | 35 µM (≈ 23.4 µg/mL) | CCCCCC[C@H]1OC(=O)CNC(=O)[C@H]([C@H](C)O)NC(=O)[C@H]([C@H](C)O)NC(=O)[C@H]([C@H](C)CC)NC(=O)[C@H](CC(C)C)N(C)C(=O)[C@@H]1C [Example 100, (6S,9S,12S,15S,18R,19R)-19-hexyl-15-isobutyl-16,18-dimethyl-6,9-bis[(1S)-1-hydroxyethyl]-12-[(1R)-1-methylpropyl]-1-oxa-4,7,10,13,16-pentazacyclononadecane-2,5,8,11,14,17-hexone]
2 | 3.1 µM (≈ 2.12 µg/mL) | CCCC(C)(C)CC[C@H]1OC(=O)CNC(=O)[C@H]([C@H](C)O)NC(=O)[C@H](CN)NC(=O)[C@H]([C@H](C)CC)NC(=O)[C@H](CC(C)C)N(C)C(=O)[C@@H]1C [Example 103, (6S,9S,12S,15S,18R,19R)-9-(aminomethyl)-19-(3,3-dimethylhexyl)-15-isobutyl-16,18-dimethyl-6-[(1S)-1-hydroxyethyl]-12-[(1R)-1-methylpropyl]-1-oxa-4,7,10,13,16-pentazacyclononadecane-2,5,8,11,14,17-hexone]
3 | 71 µM (≈ 55 µg/mL) | CCCCCCC1OC(=O)CNC(=O)[C@H](CNC(=O)Cn2ccnc2)NC(=O)[C@H](CN)NC(=O)[C@H](C2CCCCC2)NC(=O)[C@H](CC(C)C)N(C)C(=O)[C@@H]1C (stereo in doubt) [Example 160, N-[[(6S,9S,12S,15S,18R,19R)-9-(Aminomethyl)-12-cyclohexyl-19-hexyl-15-isobutyl-16,18-dimethyl-2,5,8,11,14,17-hexaoxo-1-oxa-4,7,10,13,16-pentazacyclononadec-6-yl]methyl]-2-imidazol-1-yl-acetamide]
4 | 5.3 µM (≈ 4.09 µg/mL) | CCCCCC[C@H]1OC(=O)CNC(=O)[C@H]([C@H](C)O)NC(=O)[C@H](CN)NC(=O)[C@H](C2CCCCC2)NC(=O)[C@H](CC(C)C)N(C)C(=O)[C@@H]1Cc1ccc(C)cc1 [Example 96, (6S,9S,12S,15S,18R,19R)-9-(aminomethyl)-12-cyclohexyl-19-hexyl-15-isobutyl-16-methyl-18-(p-tolylmethyl)-6-[(1S)-1-hydroxyethyl]-1-oxa-4,7,10,13,16-pentazacyclononadecane-2,5,8,11,14,17-hexone]
5 | 50 µM (≈ 36.3 µg/mL) | CCCCCCCCCC[C@H]1OC(=O)CNC(=O)[C@H]([C@H](C)O)NC(=O)[C@H](CN)NC(=O)[C@H](CCCOC)NC(=O)[C@H](CC(C)C)N(C)C(=O)[C@@H]1C [Example 87, (6S,9S,12S,15S,18R,19R)-9-(aminomethyl)-19-decyl-15-isobutyl-12-(3-methoxypropyl)-16,18-dimethyl-6-[(1S)-1-hydroxyethyl]-1-oxa-4,7,10,13,16-pentazacyclononadecane-2,5,8,11,14,17-hexone]
6 | 50 µM (≈ 34.4 µg/mL) | CCCCCC[C@H]1OC(=O)CNC(=O)[C@H]([C@H](C)O)NC(=O)[C@H](CN)NC(=O)[C@H](Cc2ccccc2)NC(=O)[C@H](CC(C)C)N(C)C(=O)[C@@H]1C [Example 91, (6S,9S,12S,15S,18R,19R)-9-(aminomethyl)-12-benzyl-19-hexyl-15-isobutyl-16,18-dimethyl-6-[(1S)-1-hydroxyethyl]-1-oxa-4,7,10,13,16-pentazacyclononadecane-2,5,8,11,14,17-hexone]
7 | 3.1 µM (≈ 2.16 µg/mL) | CCCCCC[C@H]1OC(=O)CNC(=O)[C@H]([C@@H](O)CO)NC(=O)[C@H](CN)NC(=O)[C@H](C2CCCCC2)NC(=O)[C@H](CC(C)C)N(C)C(=O)[C@@H]1C [Example 102, (6S,9S,12S,15S,18R,19R)-9-(aminomethyl)-12-cyclohexyl-19-hexyl-15-isobutyl-16,18-dimethyl-6-[(1R)-1,2-dihydroxyethyl]-1-oxa-4,7,10,13,16-pentazacyclononadecane-2,5,8,11,14,17-hexone]
8 | 1.6 µM (≈ 1.11 µg/mL) | CCCCCC(C)[C@H]1OC[C@@H](C)NC(=O)[C@H]([C@H](C)O)NC(=O)[C@H](CN)NC(=O)[C@H](C2CCCCC2)NC(=O)[C@H](CC(C)C)N(C)C(=O)C1C (stereo partly drawn) [Example 153, (3R,6S,9S,12S,15S,18R,19R)-9-(Aminomethyl)-12-cyclohexyl-19-(heptan-2-yl)-6-((S)-1-hydroxyethyl)-15-isobutyl-3,16,18-trimethyl-1-oxa-4,7,10,13,16-pentaazacyclononadecane-5,8,11,14,17-pentaone] (cyclo([Chg][Dap][aThr][X9][NMeL]))
9 | 2.2 µM (≈ 1.53 µg/mL) | CCCCCC[C@H]1OC[C@@H](CC)NC(=O)[C@H]([C@H](C)O)NC(=O)[C@H](CN)NC(=O)[C@H](C2CCCCC2)NC(=O)[C@H](CC(C)C)N(C)C(=O)[C@@H]1C [Example 144, (3R,6S,9S,12S,15S,18R,19R)-9-(aminomethyl)-12-cyclohexyl-3-ethyl-19-hexyl-15-isobutyl-16,18-dimethyl-6-[(1S)-1-hydroxyethyl]-1-oxa-4,7,10,13,16-pentazacyclononadecane-5,8,11,14,17-pentone] (cyclo([Chg][Dap][aThr][X6][NMeL]))
10 | 3.7 µM (≈ 2.82 µg/mL) | CCCCCC[C@H]1OC(=O)CNC(=O)[C@H]([C@H](C)O)NC(=O)[C@H](CN)NC(=O)[C@H](C2CCCCC2)NC(=O)[C@H](CC(C)C)N(C)C(=O)[C@@H]1CC1CCCCC1 [Example 135, (6S,9S,12S,15S,18R,19R)-9-(aminomethyl)-12-cyclohexyl-18-(cyclohexylmethyl)-19-hexyl-15-isobutyl-16-methyl-6-[(1S)-1-hydroxyethyl]-1-oxa-4,7,10,13,16-pentazacyclononadecane-2,5,8,11,14,17-hexone]

Continued, molecule first:

Row | Compound | MIC
11 | CC(C)C[C@H]1C(=O)N[C@@H](C2CCCCC2)C(=O)N[C@@H](CN)C(=O)N[C@@H]([C@H](C)O)C(=O)NCC(=O)O[C@H](CC2CC3CCC2C3)[C@@H](C)C(=O)N1C (stereo partly drawn) [Example 62, (6S,9S,12S,15S,18R,19R)-9-(Aminomethyl)-19-(((exo)-bicyclo[2.2.1]heptan-2-yl)methyl)-12-cyclohexyl-6-((S)-1-hydroxyethyl)-15-isobutyl-16,18-dimethyl-1-oxa-4,7,10,13,16-pentaazacyclononadecane-2,5,8,11,14,17-hexaone] | 1.6 µM (≈ 1.13 µg/mL)
12 | CCCCCCCCCC[C@H]1OC(=O)[C@@H](C)NC(=O)[C@H]([C@H](C)O)NC(=O)[C@H](CO)NC(=O)[C@H]([C@@H](C)CC)NC(=O)[C@H](CC(C)C)N(C)C(=O)[C@@H]1C [Example 4, (3R,6S,9S,12S,15S,18R,19R)-12-((S)-sec-butyl)-19-decyl-6-((S)-1-hydroxyethyl)-9-(hydroxymethyl)-15-isobutyl-3,16,18-trimethyl-1-oxa-4,7,10,13,16-pentaazacyclononadecane-2,5,8,11,14,17-hexaone] | 13 µM (≈ 9.44 µg/mL)
13 | CCCCCC[C@H]1OC[C@@H](C)NC(=O)[C@H]([C@H](C)OCCCN)NC(=O)[C@H](CN)NC(=O)[C@H](C2CCCCC2)NC(=O)[C@H](CC(C)C)N(C)C(=O)[C@@H]1C [Example 70, (3R,6S,9S,12S,15S,18R,19R)-9-(Aminomethyl)-6-((S)-1-(3-aminopropoxy)ethyl)-12-cyclohexyl-19-hexyl-15-isobutyl-3,16,18-trimethyl-1-oxa-4,7,10,13,16-pentaazacyclononadecane-5,8,11,14,17-pentaone] (cyclo([Chg][Dap][aThr](Propyl(3-NH2))[X2][NMeL])) | 15 µM (≈ 11.1 µg/mL)
14 | CCCCCC[C@H]1OC(=O)CNC(=O)[C@H](CO[C@H]2C[C@H](N)C2)NC(=O)[C@H](CN)NC(=O)[C@H](C2CCCCC2)NC(=O)[C@H](CC(C)C)N(C)C(=O)[C@@H]1C [Example 58, (6S,9S,12S,15S,18R,19R)-6-(((1r,3S)-3-Aminocyclobutoxy)methyl)-9-(aminomethyl)-12-cyclohexyl-19-hexyl-15-isobutyl-16,18-dimethyl-1-oxa-4,7,10,13,16-pentaazacyclononadecane-2,5,8,11,14,17-hexaone] | 6.3 µM (≈ 4.64 µg/mL)
15 | CCCCCCCCCC[C@H]1OC(=O)CNC(=O)[C@H]([C@H](C)O)NC(=O)[C@H](CNC(=N)N)NC(=O)[C@H]([C@@H](C)CC)NC(=O)[C@H](CC(C)C)N(C)C(=O)[C@@H]1C [Example 26, 1-[[(6S,9S,12S,15S,18R,19R)-19-decyl-6-[(1S)-1-hydroxyethyl]-15-isobutyl-16,18-dimethyl-12-[(1S)-1-methylpropyl]-2,5,8,11,14,17-hexaoxo-1-oxa-4,7,10,13,16-pentazacyclononadec-9-yl]methyl]guanidine] | 50 µM (≈ 37.6 µg/mL)
16 | CCCCCC[C@H]1OC[C@@H](C)NC(=O)[C@H](COCCCN(C)C)NC(=O)[C@H](CN)NC(=O)[C@H](C2CCCCC2)NC(=O)[C@H](CC(C)C)N(C)C(=O)[C@@H]1C [Example 78, (3R,6S,9S,12S,15S,18R,19R)-9-(Aminomethyl)-12-cyclohexyl-6-((3-(dimethylamino)propoxy)methyl)-19-hexyl-15-isobutyl-3,16,18-trimethyl-1-oxa-4,7,10,13,16-pentaazacyclononadecane-5,8,11,14,17-pentaone] (cyclo([Chg][Dap]S(Propyl(3-NMe2))[X2][NMeL])) | 25 µM (≈ 18.8 µg/mL)
17 | CCCCCC[C@H]1OC(=O)CNC(=O)[C@H]([C@H](C)O)NC(=O)[C@H](CN)NC(=O)[C@H](C2CCC(F)(F)CC2)NC(=O)[C@H](CC(C)C)N(C)C(=O)[C@@H]1C (single isomer, unassigned) [Example 52] | 12 µM (≈ 8.6 µg/mL)

same assay, conditions: E. coli CFT073 ATCC 700928; Mueller Hinton II cation adjusted Broth with 0.002% v/v Tween-80; 35° C. for 22 hours; lowest concentration that completely prevented bacterial growth

Row | Compound | MIC
18 | C=CCCCC[C@H]1OC(=O)CNC(=O)[C@H]([C@H](C)O)NC(=O)[C@H](CN)NC(=O)[C@H](C2CCCCC2)NC(=O)[C@H](CC(C)C)N(C)C(=O)[C@@H]1C [Example 105, (6S,9S,12S,15S,18R,19R)-9-(aminomethyl)-12-cyclohexyl-19-hex-5-enyl-15-isobutyl-16,18-dimethyl-6-[(1S)-1-hydroxyethyl]-1-oxa-4,7,10,13,16-pentazacyclononadecane-2,5,8,11,14,17-hexone] | 5.2 µM (≈ 3.53 µg/mL)
